Experimental findings from patent US5593966A, “Peptide derivatives of cytochrome b558 and their use as medicaments” (The United States of America as represented by the …, priority 1990, dated 1997) are described below.

For assay [1], the target named is T1, NADPH oxidase (Homo sapiens, UniProt P14598).
T1 construct: Neutrophils were electropermeabilized as described; endogenous in cells; host or cells: electropermeabilized peripheral blood neutrophils (PMN), stimulated with PMA or fMLP
T1 sequence (P14598 1-390): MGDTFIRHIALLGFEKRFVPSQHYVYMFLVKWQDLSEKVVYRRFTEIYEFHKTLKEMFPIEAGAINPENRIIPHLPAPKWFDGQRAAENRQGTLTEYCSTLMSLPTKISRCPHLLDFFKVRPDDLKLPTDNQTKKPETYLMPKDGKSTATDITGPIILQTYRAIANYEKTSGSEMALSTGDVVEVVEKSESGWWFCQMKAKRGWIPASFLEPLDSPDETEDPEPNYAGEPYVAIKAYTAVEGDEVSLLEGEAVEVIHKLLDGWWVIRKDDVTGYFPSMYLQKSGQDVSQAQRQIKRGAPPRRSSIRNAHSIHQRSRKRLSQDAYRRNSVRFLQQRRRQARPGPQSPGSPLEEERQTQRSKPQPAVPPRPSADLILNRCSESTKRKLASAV
The assay is described as follows: Permeabilized cell NADPH oxidase assay (electropermeabilized neutrophils stimulated with PMA or fMLP). Format: cell-based. The following applies: for Mean inhibition vs. buffer control (n), Electropermeabilized cell, PMA: PMA 10 ng/ml; for Mean inhibition vs. buffer control (n), Electropermeabilized cell, PMA / Mean inhibition vs. buffer control (n), Electropermeabilized cell, FMLP: preincubation with 800 μM peptide, assay with 200 μM peptide; for Mean inhibition vs. buffer control (n), Electropermeabilized cell, FMLP: fMLP 10 μM. The procedure: Neutrophils were electropermeabilized as described (Grinstein et al, J. Biol. Chem., 263, 1779-1783 (1988)), incubated on ice for 30 min in permeabilization buffer (140 mM KCl, 1 mM MgCl2, 1 mM EGTA, 0.193 mM CaCl2, 1 mM ATP, 2 mM NADPH, 10 μM GTP, 10 mM glucose, 10 mM HEPES-N-methylglucamine, pH 7) supplemented with synthetic peptide (800 μM). The cells were resuspended at 5×10^6 /ml in the same buffer containing 200 μM synthetic peptide, 150 μM acetylferricytochrome c, catalase (2500 U/ml), ±25 μg/ml superoxide dismutase. Wells containing 5×10^5 cells were stimulated with PMA (10 ng/ml) or fMLP (10 μM) and O2^-- production was determined as above.
Electropermeabilized PMN were incubated on ice in permeabilization buffer supplemented with synthetic peptide (800 μM). The cells were resuspended at 5×10^6 /ml in the same buffer containing 200 μM synthetic peptide. Wells containing 5×10^5 cells were stimulated with PMA (10 ng/ml) or fMLP (10 μM) and O2 production was determined as described in "Experimental Procedures". […] Electropermeabilized PMN sham incubated without synthetic peptides and stimulated with […] or fMLP generated 8.4±1.1 nmol O2 /min/10^6 cells and 8.9±1.7 nmol O2 /min/10^6 cells, respectively (mean±SEM, 5 independent experiments).

The target of assay [2] is T1, NADPH oxidase. The assay is described as follows: Cell-free NADPH oxidase assay (arachidonate-stimulated O2 generation, neutrophil membrane plus cytosol). Format: biochemical. Conditions: 100 μM synthetic peptide; arachidonate-stimulated O2 production; mean of n experiments in duplicate. Here is the method:
Neutrophils were isolated from peripheral blood and cytosol and membrane fractions were prepared by differential centrifugation as previously described (Nunoi et al, Science, 242, 1298-1301 (1988)). Typical yields of cytosol and membrane proteins obtained were 2.8±0.1 mg/10^8 cell equivalents and 1.5±0.1 μg/10^6 cell equivalents, respectively (mean±SD, 3 separate preparations). The cell-free assay of O2 generation was modified as follows: wells contained 2.5-5.0×10^5cell equivalents neutrophil membrane, 10^6 cell equivalents neutrophil cytosol in a final volume of 100 μl reaction mixture (150 μM acetylated ferricytochrome c (11), 4 mM MgCl2, 10 μM FAD, 1 mM EGTA, 200 μM NADPH, 40 μM arachidonic acid, 10 μM GTPγ S, ±25 μg/ml superoxide dismutase in 75 mM potassium phosphate, pH 7.0). Because membrane preparations varied in activity, the amount of membrane added per well was adjusted to yield an arachidonate-stimulated O2 production of ≈0.4 nmol/min/well in the absence of synthetic peptide. The maximal linear rate of superoxide dismutase-inhibitable acetylferricytochrome c reduction (ΔO.D. […]) was converted to nmol O2 generated/min using an instrument-corrected extinction coefficient derived empirically as described (Leslie, J. Immunol. Methods, 103, 253-259 (1987)). To measure oxidase inhibition by antibodies directed against the 91 kDa subunit of cytochrome b558 membranes were solubilized in 1% deoxycholate, incubated for 30 min on ice with an equal volume of serum at various dilutions. Diluting these samples 10-fold with H2 O lowered the detergent concentration below the CMC and allowed sedimentation (130,000 g×30 min) of an oxidase-competent membrane fraction. This fraction was resolubilized in deoxycholate, and assayed for arachidonate-stimulatedO2 generation in the presence of cytosol.
In Table 1 above, the cell-free assay of O2 generation contained 2.5-5.0×10^5 cell equivalents of neutrophil (PMN) membrane, 10^6 cell equivalents PMN cytosol in a final volume of 100 μl reaction mixture. Because membrane preparations varied in activity, the amount of membrane added per well was adjusted to yield an arachidonate-stimulated O2 production of ≈0.4 nmol/min/well in the absence of synthetic peptide. Data represent the mean percent inhibition obtained in n experiments (each performed in duplicate) in the presence of 100 μM synthetic peptide compared to a simultaneous buffer control.

Where a SMILES comes first, the peptide text is derived from it.

Regarding `NC(N)=NCCC[C@H](NC(=O)[C@H](Cc1ccccc1)NC(=O)[C@@H]1CCCN1C(=O)[C@H](CO)NC(=O)[C@H](Cc1ccccc1)NC(=O)CNC(=O)[C@@H]1CCCN1C(=O)[C@@H]1CCCN1C(=O)[C@@H](N)CCCN=C(N)N)C(=O)O` [Bradykinin] (H-RPPGFSPFR-OH), in assay [1], the “Mean inhibition vs. buffer control (n), Electropermeabilized cell, PMA” value (from here on “Mean inhibition vs. buffer control (n) … PMA”) was -8% and the “Mean inhibition vs. buffer control (n), Electropermeabilized cell, FMLP” value (“Mean inhibition vs. buffer control (n) … FMLP” for short) is given as -6%. Also, the “Mean inhibition vs. buffer control (n), Cell-free assay” value in assay [2] is given as -8%.

Consider `CC(C)[C@H](NC(=O)[C@H](C)NC(=O)[C@H](Cc1c[nH]c2ccccc12)NC(=O)[C@H](CC(N)=O)NC(=O)CN)C(=O)N[C@@H](CC(N)=O)C(=O)N[C@@H](CCC(=O)O)C(=O)NCC(=O)N[C@@H](CS)C(=O)O` [GNWAVNEGC] (H-GNWAVNEGC-OH), for which the “Mean inhibition vs. buffer control (n), Cell-free assay” value in assay [2] is on record as -17%.

Consider `CC(C)C[C@H](NC(=O)[C@@H](N)Cc1c[nH]cn1)C(=O)N[C@@H](Cc1ccccc1)C(=O)N[C@@H](CC(N)=O)C(=O)N[C@H](C(=O)N[C@@H](CCC(=O)O)C(=O)N[C@@H](Cc1c[nH]c2ccccc12)C(=O)N[C@@H](CS)C(=O)O)C(C)C` [HLFNVEWC] (H-HLFNVEWC-OH), for which, in assay [1], the “Mean inhibition vs. buffer control (n) … PMA” value is -6% and the “Mean inhibition vs. buffer control (n) … FMLP” value is 6%. Besides, the “Mean inhibition vs. buffer control (n), Cell-free assay” value in assay [2] was -17%.

As to `CC[C@H](C)[C@H](NC(=O)[C@H](Cc1ccccc1)NC(=O)[C@H](Cc1c[nH]cn1)NC(=O)[C@@H](NC(=O)CNC(=O)[C@@H](N)CCCNC(=N)N)C(C)C)C(=O)N[C@@H](Cc1ccccc1)C(=O)O` [RGVHFIF, Arg--Gly--Val--His--Phe--Ile--Phe] (H-RGVHFIF-OH), in assay [1], the “Mean inhibition vs. buffer control (n) … PMA” value came out at 72% and the “Mean inhibition vs. buffer control (n) … FMLP” value came out at 73%. Also, the “Mean inhibition vs. buffer control (n), Cell-free assay” value in assay [2] is listed as 97%.

On to `CC[C@H](C)[C@H](NC(=O)[C@@H](NC(=O)[C@H](C)NC(=O)[C@H](CCC(N)=O)NC(=O)[C@H](Cc1ccccc1)NC(=O)CNC(=O)[C@H](C)NC(=O)[C@H](Cc1c[nH]cn1)NC(=O)[C@H](C)NC(=O)[C@H](CCCNC(=N)N)NC(=O)[C@H](CCCCN)NC(=O)[C@@H](N)CCCNC(=N)N)[C@@H](C)O)C(=O)O` [RKRAHAGFQATI] (H-RKRAHAGFQATI-OH), for which, in assay [1], the “Mean inhibition vs. buffer control (n) … PMA” value is reported as -11% and the “Mean inhibition vs. buffer control (n) … FMLP” value is listed as -28%. The “Mean inhibition vs. buffer control (n), Cell-free assay” value in assay [2] was -5%.

Take `CC[C@H](C)[C@H](NC(=O)[C@H](Cc1ccccc1)NC(=O)[C@H](Cc1c[nH]cn1)NC(=O)[C@@H](NC(=O)CNC(=O)[C@H](CCCNC(=N)N)NC(=O)[C@@H]1CCCN1C(=O)CNC(=O)[C@H](CO)NC(=O)[C@H](CCC(=O)O)NC(=O)[C@H](CO)NC(=O)[C@H](CC(N)=O)NC(=O)[C@@H](N)CO)C(C)C)C(=O)N[C@@H](Cc1ccccc1)C(=O)N[C@@H](CC(N)=O)C(=O)N[C@@H](CCCCN)C(=O)N[C@@H](CCC(=O)O)C(=O)N[C@@H](CC(N)=O)C(=O)N[C@@H](Cc1ccccc1)C(=O)O` [SNSESGPRGVHFIFNKENF] (H-SNSESGPRGVHFIFNKENF-OH): the “Mean inhibition vs. buffer control (n), Cell-free assay” value in assay [2] is listed as 96%.

Turning to `NC(=O)C[C@H](NC(=O)[C@@H](N)CO)C(=O)N[C@@H](CO)C(=O)N[C@@H](CCC(=O)O)C(=O)N[C@@H](CO)C(=O)NCC(=O)N1CCC[C@H]1C(=O)O` [SNSESGP] (H-SNSESGP-OH), in assay [1], the “Mean inhibition vs. buffer control (n) … PMA” value was -1% and the “Mean inhibition vs. buffer control (n) … FMLP” value came out at 2%. Moreover, the “Mean inhibition vs. buffer control (n), Cell-free assay” value in assay [2] is recorded as -8%.

`CSCC[C@H](NC(=O)[C@H](CO)NC(=O)[C@H](Cc1ccccc1)NC(=O)[C@@H](N)C(C)C)C(=O)N[C@@H](Cc1ccccc1)C(=O)N[C@@H](CCC(N)=O)C(=O)NCC(=O)N[C@@H](CCC(=O)O)C(=O)N[C@@H](CCC(=O)O)C(=O)N[C@@H](CO)C(=O)O` [VFSMFQGEES] (H-VFSMFQGEES-OH): in assay [1], the “Mean inhibition vs. buffer control (n) … PMA” value is 3% and the “Mean inhibition vs. buffer control (n) … FMLP” value is reported as -5%. The “Mean inhibition vs. buffer control (n), Cell-free assay” value in assay [2] came to 10%.

On to “RGVHFIFNKENF [Residues 559-570 of the 91 kDa subunit of cytochrome b558]”, for which, in assay [1], the “Mean inhibition vs. buffer control (n) … PMA” value is 61% and the “Mean inhibition vs. buffer control (n) … FMLP” value is 67%. Moreover, in assay [1] (stimulated with fMLP or PMA), the “Inhibition of O2 production by electropermeabilized neutrophils (in words)” value was “inhibited”. In addition, the “Mean inhibition vs. buffer control (n), Cell-free assay” value in assay [2] came out at 93%.
